Results from publication PMC5218480 (PLoS ONE, 2017).

Test system: MV-4-11 cells
Assay: Gene expression microarray analysis (Affymetrix PrimeView) and GSEA
Type: cell-based, human
Set-up: RFU PODN (11730768_x_at) / Fold change /veh PODN (11730768_x_at) / RFU LINC00158 (11744669_a_at) / Fold change /veh LINC00158 (11744669_a_at) / RFU DUSP10 (11751237_a_at) / Fold change /veh DUSP10 (11751237_a_at) / RFU ID3 (11757404_x_at) / Fold change /veh ID3 (11757404_x_at) / RFU PLEKHG5 (11737974_s_at) / Fold change /veh PLEKHG5 (11737974_s_at) / RFU LRRC4B (11730491_at) / Fold change /veh LRRC4B (11730491_at) / RFU GIMAP4 (11747438_a_at) / Fold change /veh GIMAP4 (11747438_a_at) / RFU KRT8 (11758183_x_at) / Fold change /veh KRT8 (11758183_x_at) / RFU CNN1 (11734310_a_at) / Fold change /veh CNN1 (11734310_a_at) / RFU VPS37D (11726825_at) / Fold change /veh VPS37D (11726825_at) / RFU C10orf10 (11716522_x_at) / Fold change /veh C10orf10 (11716522_x_at) / RFU KIR2DL2 /// KIR2DL4 /// KIR2DL5A /// KIR2DL5B /// KIR2DS1 /// KIR2DS2 /// KIR2DS3 /// KIR2DS4 /// KIR3DL3 /// KIR3DL3 /// KIR3DS1 (11738374_at) / Fold change /veh KIR2DL2 /// KIR2DL4 /// KIR2DL5A /// KIR2DL5B /// KIR2DS1 /// KIR2DS2 /// KIR2DS3 /// KIR2DS4 /// KIR3DL3 /// KIR3DL3 /// KIR3DS1 (11738374_at) / RFU C1QL1 (11718748_at) / Fold change /veh C1QL1 (11718748_at) / RFU TMPRSS4 (11747572_a_at) / Fold change /veh TMPRSS4 (11747572_a_at) / RFU HAMP (11756126_x_at) / Fold change /veh HAMP (11756126_x_at) / RFU RNFT2 (11725882_a_at) / Fold change /veh RNFT2 (11725882_a_at) / RFU NR4A2 (11747474_a_at) / Fold change /veh NR4A2 (11747474_a_at) / RFU ABCC12 (11746883_a_at) / Fold change /veh ABCC12 (11746883_a_at) / RFU TMEM136 (11760407_x_at) / Fold change /veh TMEM136 (11760407_x_at) / RFU CLDN22 /// WWC2 (11732394_at) / Fold change /veh CLDN22 /// WWC2 (11732394_at) / RFU HLA-DPB1 (11760878_x_at) / Fold change /veh HLA-DPB1 (11760878_x_at) / RFU SPINT1 (11716480_a_at) / Fold change /veh SPINT1 (11716480_a_at) / RFU GAP43 (11754022_s_at) / Fold change /veh GAP43 (11754022_s_at) / RFU A4GNT (11735810_at) / Fold change /veh A4GNT (11735810_at) / RFU PRB3 (11715151_x_at) / Fold change /veh PRB3 (11715151_x_at) / RFU TUBB4B (11761932_at) / Fold change /veh TUBB4B (11761932_at) / RFU CAPN14 (11732068_a_at) / Fold change /veh CAPN14 (11732068_a_at) / RFU TMCC2 (11721928_a_at) / Fold change /veh TMCC2 (11721928_a_at) / RFU IRGQ (11745062_a_at) / Fold change /veh IRGQ (11745062_a_at) / RFU FAM174B (11720279_a_at) / Fold change /veh FAM174B (11720279_a_at) / RFU TMPRSS4 (11748680_a_at) / Fold change /veh TMPRSS4 (11748680_a_at) / RFU FAM212B (11763350_a_at) / Fold change /veh FAM212B (11763350_a_at) / RFU PLEKHG5 (11743358_a_at) / Fold change /veh PLEKHG5 (11743358_a_at) / RFU ZSCAN30 (11745921_a_at) / Fold change /veh ZSCAN30 (11745921_a_at) / RFU CMKLR1 (11741424_a_at) / Fold change /veh CMKLR1 (11741424_a_at) / RFU LOC101060620 /// MAPK8IP1 (11723275_at) / Fold change /veh LOC101060620 /// MAPK8IP1 (11723275_at) / RFU SPTSSB (11747773_x_at) / Fold change /veh SPTSSB (11747773_x_at) / RFU PRSS12 (11739890_at) / Fold change /veh PRSS12 (11739890_at) / RFU BIN1 (11741810_x_at) / Fold change /veh BIN1 (11741810_x_at) / RFU WNT11 (11732464_a_at) / Fold change /veh WNT11 (11732464_a_at) / RFU C10orf10 (11716521_a_at) / Fold change /veh C10orf10 (11716521_a_at) / RFU C5orf56 (11738089_at) / Fold change /veh C5orf56 (11738089_at) / RFU CYB561 (11721691_x_at) / Fold change /veh CYB561 (11721691_x_at) / RFU ANKRD19P (11752326_a_at) / Fold change /veh ANKRD19P (11752326_a_at) / RFU OR2T12 /// OR2T33 /// OR2T8 (11738714_s_at) / Fold change /veh OR2T12 /// OR2T33 /// OR2T8 (11738714_s_at) / RFU VCAN (11748164_a_at) / Fold change /veh VCAN (11748164_a_at) / RFU JSRP1 (11732532_at) / Fold change /veh JSRP1 (11732532_at) / RFU KRTAP10-11 (11738290_x_at) / Fold change /veh KRTAP10-11 (11738290_x_at) / RFU MYO3A (11730013_a_at) / Fold change /veh MYO3A (11730013_a_at) / RFU EBF3 (11725865_a_at) / Fold change /veh EBF3 (11725865_a_at) / RFU CAMK2N1 (11719241_x_at) / Fold change /veh CAMK2N1 (11719241_x_at) / RFU C5orf56 (11738088_a_at) / Fold change /veh C5orf56 (11738088_a_at) / RFU OLFML3 (11715873_a_at) / Fold change /veh OLFML3 (11715873_a_at) / RFU LOC100653217 /// NTM (11731650_a_at) / Fold change /veh LOC100653217 /// NTM (11731650_a_at) / RFU MAPK11 (11762145_a_at) / Fold change /veh MAPK11 (11762145_a_at) / RFU FIZ1 (11724087_x_at) / Fold change /veh FIZ1 (11724087_x_at) / RFU OASL (11726364_x_at) / Fold change /veh OASL (11726364_x_at) / RFU SOX15 (11748057_x_at) / Fold change /veh SOX15 (11748057_x_at) / RFU CD79A (11719716_a_at) / Fold change /veh CD79A (11719716_a_at) / RFU HIST1H1D (11736915_at) / Fold change /veh HIST1H1D (11736915_at) / RFU CASKIN2 (11723855_a_at) / Fold change /veh CASKIN2 (11723855_a_at) / RFU LOC730098 (11760151_x_at) / Fold change /veh LOC730098 (11760151_x_at) / RFU OR4N2 (11742367_at) / Fold change /veh OR4N2 (11742367_at) / RFU PRRT2 (11749266_a_at) / Fold change /veh PRRT2 (11749266_a_at) / RFU SNX32 (11753110_a_at) / Fold change /veh SNX32 (11753110_a_at) / RFU CDHR5 (11726645_a_at) / Fold change /veh CDHR5 (11726645_a_at) / RFU RCAN1 (11760418_a_at) / Fold change /veh RCAN1 (11760418_a_at) / RFU FAM167A (11723789_a_at) / Fold change /veh FAM167A (11723789_a_at) / RFU FAM26E (11764081_at) / Fold change /veh FAM26E (11764081_at) / RFU ISYNA1 (11749810_s_at) / Fold change /veh ISYNA1 (11749810_s_at) / RFU ACY1 (11761880_at) / Fold change /veh ACY1 (11761880_at) / RFU 11764098_at / Fold change /veh 11764098_at / RFU SAMD14 (11745864_x_at) / Fold change /veh SAMD14 (11745864_x_at) / RFU NPB (11741838_a_at) / Fold change /veh NPB (11741838_a_at) / RFU TMPRSS6 (11731388_a_at) / Fold change /veh TMPRSS6 (11731388_a_at) / RFU KRTAP10-2 (11738614_at) / Fold change /veh KRTAP10-2 (11738614_at) / RFU ARHGAP8 /// PRR5-ARHGAP8 (11727945_x_at) / Fold change /veh ARHGAP8 /// PRR5-ARHGAP8 (11727945_x_at) / RFU KRTAP5-7 /// NADSYN1 (11734609_at) / Fold change /veh KRTAP5-7 /// NADSYN1 (11734609_at) / RFU RASL12 (11751679_a_at) / Fold change /veh RASL12 (11751679_a_at) / RFU CDKN2B (11736163_a_at) / Fold change /veh CDKN2B (11736163_a_at) / RFU PRF1 (11729649_at) / Fold change /veh PRF1 (11729649_at) / RFU, ZNF638 /// ZNF638-IT1 / Fold change vs veh, ZNF638 /// ZNF638-IT1 / RFU, PANK3 / Fold change vs veh, PANK3 / RFU, SH3YL1 / Fold change vs veh, SH3YL1 / RFU, ZEB2 / Fold change vs veh, ZEB2 / RFU, NRIP1 / Fold change vs veh, NRIP1 / RFU, PTTG1IP / Fold change vs veh, PTTG1IP / RFU, CAPN2 / Fold change vs veh, CAPN2 / RFU, MED14 / Fold change vs veh, MED14 / RFU, SNORA58 / Fold change vs veh, SNORA58 / RFU, C1orf63 / Fold change vs veh, C1orf63 / RFU, LRRFIP1 / Fold change vs veh, LRRFIP1 / RFU, NDUFAF7 / Fold change vs veh, NDUFAF7 / RFU, SLC12A2 / Fold change vs veh, SLC12A2 / RFU, IBTK / Fold change vs veh, IBTK / RFU, ESF1 / Fold change vs veh, ESF1 / Fold change vs veh, TMEM50B / RFU, TAOK1 / Fold change vs veh, TAOK1 / RFU, ACBD3 / Fold change vs veh, ACBD3 / RFU, TMA16 / Fold change vs veh, TMA16 / RFU, RWDD3 / Fold change vs veh, RWDD3 / RFU, BCAT1 / Fold change vs veh, BCAT1 / RFU, EDEM3 / Fold change vs veh, EDEM3 / RFU, TMEM33 / Fold change vs veh, TMEM33 / RFU, WDR75 / Fold change vs veh, WDR75 / RFU, AHCTF1 / Fold change vs veh, AHCTF1 / RFU, TFRC / Fold change vs veh, TFRC / RFU, ZDHHC17 / Fold change vs veh, ZDHHC17 / RFU, NOM1 / Fold change vs veh, NOM1 / RFU, ARL8B / Fold change vs veh, ARL8B / RFU, ZBTB11 / Fold change vs veh, ZBTB11 / RFU, TAMM41 / Fold change vs veh, TAMM41 / RFU, KIAA1704 /// LOC100996395 / Fold change vs veh, KIAA1704 /// LOC100996395 / RFU, ING1 / Fold change vs veh, ING1 / RFU, TRMT61B / Fold change vs veh, TRMT61B / RFU, FUBP3 / Fold change vs veh, FUBP3 / RFU, TP53 / Fold change vs veh, TP53 / RFU, TNKS2 / Fold change vs veh, TNKS2 / RFU, ZFP14 / Fold change vs veh, ZFP14 / RFU, ACTR2 / Fold change vs veh, ACTR2 / RFU, PPP3R1 / Fold change vs veh, PPP3R1 / RFU, PIK3R1 / Fold change vs veh, PIK3R1 / RFU, HNRNPA1 / Fold change vs veh, HNRNPA1 / RFU, RNF170 / Fold change vs veh, RNF170 / RFU, ZNF28 / Fold change vs veh, ZNF28 / RFU, RNGTT / Fold change vs veh, RNGTT / RFU, OGT / Fold change vs veh, OGT / RFU, BRD1 / Fold change vs veh, BRD1 / RFU, MARS / Fold change vs veh, MARS / RFU, ZNF655 / Fold change vs veh, ZNF655 / RFU, FAHD1 / Fold change vs veh, FAHD1 / RFU, BDP1 / Fold change vs veh, BDP1 / RFU, LRRCC1 / Fold change vs veh, LRRCC1 / RFU, ARID1A / Fold change vs veh, ARID1A / RFU, ZNF146 / Fold change vs veh, ZNF146 / RFU, ZNF330 / Fold change vs veh, ZNF330 / RFU, GPN3 / Fold change vs veh, GPN3 / RFU, C9orf123 / Fold change vs veh, C9orf123 / RFU, N4BP2L2 / Fold change vs veh, N4BP2L2 / RFU, ARFIP1 / Fold change vs veh, ARFIP1 / RFU, FAM179B / Fold change vs veh, FAM179B / RFU, BCL10 / Fold change vs veh, BCL10 / RFU, UHRF1BP1L / Fold change vs veh, UHRF1BP1L / RFU, BET1 / Fold change vs veh, BET1 / RFU, CNOT2 / Fold change vs veh, CNOT2 / RFU, ZNF268 / Fold change vs veh, ZNF268 / Fold change vs veh, ZNF507 / RFU, DGCR2 / Fold change vs veh, DGCR2 / RFU, WDSUB1 / Fold change vs veh, WDSUB1 / Fold change vs veh, HSP90B1 /// MIR3652 / RFU, ADSS / Fold change vs veh, ADSS / RFU, GK / Fold change vs veh, GK / RFU, ZNF148 / Fold change vs veh, ZNF148 / RFU, TAF9 / Fold change vs veh, TAF9 / RFU, SLC1A5 / Fold change vs veh, SLC1A5 / RFU, SLMO2 / Fold change vs veh, SLMO2 / RFU, ABCC4 / Fold change vs veh, ABCC4 / RFU, LOC101060439 /// RAP1B / Fold change vs veh, LOC101060439 /// RAP1B / RFU, RFX7 / Fold change vs veh, RFX7 / RFU, GTPBP10 / Fold change vs veh, GTPBP10 / RFU, CNEP1R1 / Fold change vs veh, CNEP1R1 / RFU, BIVM-ERCC5 /// ERCC5 / Fold change vs veh, BIVM-ERCC5 /// ERCC5 / RFU, ILF3 / Fold change vs veh, ILF3 / RFU 11762660_at / Fold change /veh 11762660_at / RFU VCAN (11757783_s_at) / Fold change /veh VCAN (11757783_s_at) / RFU DDX43 (11728927_at) / Fold change /veh DDX43 (11728927_at) / RFU KRT8 (11758188_x_at) / Fold change /veh KRT8 (11758188_x_at) / RFU NKD1 (11759106_at) / Fold change /veh NKD1 (11759106_at) / RFU SRD5A1 (11742802_a_at) / Fold change /veh SRD5A1 (11742802_a_at) / RFU TPSAB1 /// TPSB2 (11721975_s_at) / Fold change /veh TPSAB1 /// TPSB2 (11721975_s_at) / RFU GSTM3 (11746129_a_at) / Fold change /veh GSTM3 (11746129_a_at) / RFU IL23R (11737362_x_at) / Fold change /veh IL23R (11737362_x_at) / RFU TMEM51 (11727254_a_at) / Fold change /veh TMEM51 (11727254_a_at) / RFU PIWIL2 (11732686_x_at) / Fold change /veh PIWIL2 (11732686_x_at) / RFU ORM1 (11744905_x_at) / Fold change /veh ORM1 (11744905_x_at) / RFU CCDC152 (11743942_at) / Fold change /veh CCDC152 (11743942_at) / RFU ECM1 (11717891_a_at) / Fold change /veh ECM1 (11717891_a_at) / RFU IL23R (11748794_a_at) / Fold change /veh IL23R (11748794_a_at) / RFU TNFAIP8L3 (11732012_x_at) / Fold change /veh TNFAIP8L3 (11732012_x_at) / RFU MBOAT4 (11741988_at) / Fold change /veh MBOAT4 (11741988_at) / RFU 11764193_at / Fold change /veh 11764193_at / RFU TMEM53 (11763286_at) / Fold change /veh TMEM53 (11763286_at) / RFU MAGEB2 (11727129_at) / Fold change /veh MAGEB2 (11727129_at) / RFU TMEM200A (11744735_a_at) / Fold change /veh TMEM200A (11744735_a_at) / RFU CCDC152 (11751479_a_at) / Fold change /veh CCDC152 (11751479_a_at) / RFU FAM211A (11726209_a_at) / Fold change /veh FAM211A (11726209_a_at) / RFU RGS16 (11746705_a_at) / Fold change /veh RGS16 (11746705_a_at) / RFU VCAN (11755009_s_at) / Fold change /veh VCAN (11755009_s_at) / RFU RHOB (11743442_s_at) / Fold change /veh RHOB (11743442_s_at) / RFU RGS16 (11720943_a_at) / Fold change /veh RGS16 (11720943_a_at) / RFU RGS16 (11720944_at) / Fold change /veh RGS16 (11720944_at) / RFU, VPS4B / Fold change vs veh, VPS4B / RFU, CREB1 / Fold change vs veh, CREB1 / RFU, DNAJC13 / Fold change vs veh, DNAJC13 / RFU, GNAQ / Fold change vs veh, GNAQ / RFU, CDK5R1 / Fold change vs veh, CDK5R1 / RFU, ZRANB3 / Fold change vs veh, ZRANB3 / RFU, CUL4A / Fold change vs veh, CUL4A / RFU, CCNY / Fold change vs veh, CCNY / RFU, UFL1 / Fold change vs veh, UFL1 / RFU, COG3 / Fold change vs veh, COG3 / RFU, DIAPH2 / Fold change vs veh, DIAPH2 / RFU, SKA2 / Fold change vs veh, SKA2 / RFU, AFF3 / Fold change vs veh, AFF3 / RFU, LMF1 / Fold change vs veh, LMF1 / RFU, IPO11 / Fold change vs veh, IPO11 / RFU, DFFB / Fold change vs veh, DFFB / RFU, FOXP1 / Fold change vs veh, FOXP1 / RFU, CARD8 / Fold change vs veh, CARD8 / RFU, STRN3 / Fold change vs veh, STRN3 / RFU, ADK / Fold change vs veh, ADK / RFU, RASSF2 / Fold change vs veh, RASSF2 / RFU, WIPF1 / Fold change vs veh, WIPF1 / RFU, LARP1B / Fold change vs veh, LARP1B / RFU, RASA1 / Fold change vs veh, RASA1 / RFU, RB1 / Fold change vs veh, RB1 / RFU, PPFIA1 / Fold change vs veh, PPFIA1 / RFU, MAT2A / Fold change vs veh, MAT2A / RFU, CCT5 / Fold change vs veh, CCT5 / RFU, WDR92 / Fold change vs veh, WDR92 / RFU, CUX1 / Fold change vs veh, CUX1 / RFU, TTC7A / Fold change vs veh, TTC7A / RFU, TMEM135 / Fold change vs veh, TMEM135 / RFU, DEPTOR / Fold change vs veh, DEPTOR / RFU, CPM / Fold change vs veh, CPM / RFU, DNAJB6 / Fold change vs veh, DNAJB6 / RFU, CACNA2D3 / Fold change vs veh, CACNA2D3 / RFU, DTX4 / Fold change vs veh, DTX4 / RFU, TFCP2 / Fold change vs veh, TFCP2 / RFU, GMCL1 /// GMCL1P1 / Fold change vs veh, GMCL1 /// GMCL1P1 / RFU, AEBP2 / Fold change vs veh, AEBP2 / RFU, SNHG1 /// SNORD22 /// SNORD25 /// SNORD26 /// SNORD27 /// SNORD28 /// SNORD29 /// SNORD31 / Fold change vs veh, SNHG1 /// SNORD22 /// SNORD25 /// SNORD26 /// SNORD27 /// SNORD28 /// SNORD29 /// SNORD31 / Fold change (Aza/veh), C12orf56 (ProbeSet 11735607_a_at) / Fold change (ACY-1035/veh), C12orf56 (ProbeSet 11735607_a_at) / Fold change (Aza/veh), FGFR1OP (ProbeSet 11751329_s_at) / Fold change (ACY-1035/veh), FGFR1OP (ProbeSet 11751329_s_at) / Fold change (Aza/veh), VPS36 (ProbeSet 11739960_a_at) / Fold change (ACY-1035/veh), VPS36 (ProbeSet 11739960_a_at) / RFU SYPL1 (11715823_x_at) / Fold change /veh SYPL1 (11715823_x_at) / RFU IGFBP7 (11715501_s_at) / Fold change /veh IGFBP7 (11715501_s_at) / RFU REEP3 (11722064_at) / Fold change /veh REEP3 (11722064_at) / RFU IGLL1 (11728026_x_at) / Fold change /veh IGLL1 (11728026_x_at): dose or concentration left out as unconfirmed
Conditions: ProbeSet 11723141_at; LIST B

For `Nc1ncn([C@@H]2O[C@H](CO)[C@@H](O)[C@H]2O)c(=O)n1` [azacitidine], the “RFU, ZBTB11” value was 125.26 RFU.
